Laboratory results taken from patent US7576127B2, “Aromatic prodrugs of propofol, compositions and uses thereof” (XenoPort, Inc., priority 2003, dated 2009).

Assays:
human SMVT (SLC5A6) = biological target: T1, human SMVT (SLC5A6) (Homo sapiens, UniProt Q9Y289); assay: Electrogenic transport in SMVT-expressing Xenopus oocytes (two-electrode voltage-clamp); format: cell-based; details: tested at 0.5 mM on oocytes expressing SMVT; membrane potential -60 mV
T1 construct: The complete open reading frame of human SMVT (SLC5A6) was amplified; expressed in transfected cells; host or cells: Xenopus oocytes injected with cRNA transcribed in vitro from the pMO plasmid
T1 sequence (Q9Y289 1-635): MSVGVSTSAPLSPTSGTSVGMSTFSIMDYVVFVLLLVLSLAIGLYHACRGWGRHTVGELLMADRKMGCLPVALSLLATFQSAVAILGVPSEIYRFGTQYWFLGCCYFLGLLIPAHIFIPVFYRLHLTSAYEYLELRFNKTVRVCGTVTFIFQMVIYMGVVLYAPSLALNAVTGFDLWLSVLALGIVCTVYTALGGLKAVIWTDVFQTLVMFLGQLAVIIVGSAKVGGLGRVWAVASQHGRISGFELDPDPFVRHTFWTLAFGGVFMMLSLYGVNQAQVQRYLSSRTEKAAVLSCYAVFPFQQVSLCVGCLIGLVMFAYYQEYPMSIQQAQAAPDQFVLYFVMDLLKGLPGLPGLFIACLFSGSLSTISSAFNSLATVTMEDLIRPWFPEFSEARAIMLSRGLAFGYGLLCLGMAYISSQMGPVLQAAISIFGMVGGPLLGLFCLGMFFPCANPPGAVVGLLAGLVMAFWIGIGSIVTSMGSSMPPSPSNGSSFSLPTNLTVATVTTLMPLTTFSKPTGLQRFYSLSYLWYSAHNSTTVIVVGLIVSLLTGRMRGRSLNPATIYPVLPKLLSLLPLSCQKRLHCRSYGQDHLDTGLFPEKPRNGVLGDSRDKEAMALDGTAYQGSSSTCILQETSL
Text: Transporter Cloning: The complete open reading frame of human SMVT (SLC5A6) was amplified from human cDNA prepared from intestinal mRNA. Gene-specific oligonucleotide primers were designed against Genbank sequences (NM-021095). Amplified PCR products were cloned into a modified version of the mammalian expression vector pcDNA3 (termed pMO) that was engineered to contain the 5′ and 3′ untranslated regions from the Xenopus beta-globin gene. All clones were completely sequenced and tested for function by transient transfection in HEK293 cells. Radiolabeled ^3H biotin was used to assess SMVT function (see method below).
Xenopus Oocyte Expression and Electrophysiology: cRNA for oocyte expression was prepared by linearization of plasmid cDNA and in vitro transcription using T7 polymerase (Epicentre Ampliscribe kit). Xenopus oocytes were prepared and maintained as previously described (Collins et al., Proc. Natl. Acad. Sci. 1997, 13:5456-5460) and injected with 10-30 ng RNA. Transport currents were measured 2-6 days later using two-electrode voltage-clamp (Axon Instruments). […] Half-maximal concentrations were calculated using non-linear regression curve fitting software (Prism) with the Hill co-efficient fixed to 1. […]

[1] = oral dosing, rats; Raoof et al., Pharm. Res. 1996; cited from earlier work

SMILES | SMVT-specific currents above background, normalized to maximal biotin elicited current (human SMVT (SLC5A6)) | fraction of administered drug undergoing first pass metabolism [1]
CC(C)c1cccc(C(C)C)c1OC(=O)c1ccccc1C(=O)NCCC(=O)O [Compound 101, 3-{[2-[2,6-Bis(isopropyl)phenoxycarbonyl]-benzoyl]amino}-propanoic acid] | at least 10 % of Imax for biotin | –
CC(C)c1cccc(C(C)C)c1O [Propofol, 2,6-diisopropylphenol] | – | approximately 90%
